This assay relates to MRSA. The assay can be described thus: CFU counts of MRSA plated on agar with antibiotic after sub-lethal NIMELS laser (Examples IX-XII). The format is cell-based, Staphylococcus aureus. Conditions: antibiotic at resistant MIC just below effectiveness level. From the text: The following parameters illustrate the general bacterial methods according to the invention as applied to MRSA for the in vitro Experiments V and VIII-XII.
The null hypothesis is μ1−μ2=0 and μ1−μ3=0 where:
a) μ1 is sub-lethal dosimetry from the NIMEL laser system on MRSA as a control and;
The null hypothesis is μ1−μ2=0 and μ1−μ3=0 where: • a) μ1 is sub-lethal dosimetry from the NIMEL laser system on MRSA as a control and; • b)μ2 is the same sub-lethal dosimetry from the NIMEL laser system on MRSA with the addition of tetracycline at resistant MIC just below effectiveness level and; • c) μ3 is the same sub-lethal dosimetry from the NIMEL laser system on MRSA with the addition of rifampin at resistant MIC just below effectiveness level.
The null hypothesis is μ1−μ2=0 and μ1−μ3=0 where: a) μ1 is sub-lethal dosimetry from the NIMEL laser system on MRSA as a control and; b)μ2 is the same sub-lethal dosimetry from the NIMEL laser system on MRSA with the addition of methicillin at resistant MIC just below effectiveness level and; […]

In the case of `COc1cccc(OC)c1C(=O)N[C@@H]1C(=O)N2[C@@H]1SC(C)(C)[C@@H]2C(=O)O` [Methicillin], the “effect of sub-lethal NIMELS irradiation on antibiotic action against MRSA colonies (words)” value was “successful reversal of MRSA resistance”. The “effect of sub-lethal NIMELS irradiation on antibiotic action against MRSA colonies (words)” value (listed as methicillin) is “being potentiated by the NIMELS effect”.

Source of the values: patent publication US20110295343A1, “NEAR-INFRARED ELECTROMAGNETIC MODIFICATION OF CELLULAR STEADY-STATE MEMBRANE POTENTIALS” (priority 2008, published 2011).
